Data reported in US20080220100A1, “Fermented panax notoginseng solution with anti-cancer effects and manufacture method thereof” (MICROBIO COMPANY LTD., TAIWAN, priority 2007, published 2008).

Columns and labels:
Hep 3B/T2 cancer cells = experiment: SCID mice injected with Hep 3B/T2 cancer cells, fed fermented product for 35 days; type: in vivo; conditions: positive control group
Protocol: SCID mice with 18 to 22 g body weight were classified into 5 groups and 10 mice per group. […] The tumor size of the SCID mice was measured every 3 to 4 days, and the weight of the heart, liver, spleen, lung, and kidney of the SCID mice was measured when the experiment was finished.

[1] = Anti-oxidation capacity relative to vitamin E; conditions: vitamin E defined to 100; medium with increasing share of black bean powder
Source text: The same procedure carried out in Example 2 was repeated except that the content of the Panax notoginseng medium was changed. The content of the Panax notoginseng medium included 4 types: ¼ Panax notoginseng powder and ¾ black powder, ½ Panax notoginseng powder and 1/2 black powder, ¾ Panax notoginseng powder and ¼ black powder, and all Panax notoginseng powder.

Row | Heart weight (Hep 3B/T2 cancer cells) [mg] | Kidney weight (Hep 3B/T2 cancer cells) [mg] | Liver weight (Hep 3B/T2 cancer cells) [mg] | Lung weight (Hep 3B/T2 cancer cells) [mg] | Spleen weight (Hep 3B/T2 cancer cells) [mg] | Compound | Tumor weight (Hep 3B/T2 cancer cells) [mg] | anti-oxidation capacity [1]
1 | 143.2 ± 14.6 | 328.2 ± 26.2 | 1171.3 ± 103.0 | 215.8 ± 23 | 118.7 ± 35.6 | O=c1[nH]cc(F)c(=O)[nH]1 [5-FU, fluorouracil] | 376.1 ± 232.9 | 
2 |  |  |  |  |  | vitamin E |  | 100
